Among the data in PubChem BioAssay (NCI) are TGI values, retold here.

Each structure is given as a SMILES string.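 Assay format: 96-well plates, 48-hour exposure. Definition used: TGI = concentration required for complete inhibition of growth.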 Where only a bound is given, the exact number is not on record here.

Test systems include BT-549 breast; A498 renal; UO-31 renal; OVCAR-4 ovarian; SK-MEL-28 melanoma; SN12C renal; 786-0 renal; MDA-MB-231 breast; SR leukemia; COLO 205 colon; HL-60(TB) leukemia.
Assay in all cases: NCI-60 cell line screen, 48 h

`Cc1cc(C)c(C#N)c(SC(=S)NC(=O)c2ccccc2)n1`: the TGI in the experiment on BT-549 breast, in the experiment on A498 renal, in the experiment with UO-31 renal, with OVCAR-4 ovarian, in the experiment with SK-MEL-28 melanoma and in the experiment with SN12C renal was greater than 100 µM throughout. Also, the TGI with 786-0 renal, in the experiment on MDA-MB-231 breast, in the experiment on SR leukemia and in the experiment with COLO 205 colon was greater than 100 µM in each case.
As to `CN1CCCC(OC(=O)c2cc3cc(CCl)ccc3oc2=O)C1` (stereo not given), the TGI came out at 49.2 µM in the experiment with BT-549 breast; 32.5 µM with UO-31 renal; 48.6 µM with OVCAR-4 ovarian; 13.2 µM in the experiment with HL-60(TB) leukemia; 50.3 µM in the experiment on SK-MEL-28 melanoma; 43.6 µM with SN12C renal. Besides, the TGI in the experiment on 786-0 renal is 58.4 µM; with MDA-MB-231 breast it was 52.1 µM; in the experiment on SR leukemia, 70.1 µM; in the experiment on COLO 205 colon, 35.7 µM.
On to `Cc1sc2nc3n(sc4nc5sc(C)c(C)c5c(=O)n43)c(=O)c2c1C`, for which the TGI in the experiment on BT-549 breast, with UO-31 renal, in the experiment with OVCAR-4 ovarian, in the experiment with HL-60(TB) leukemia, in the experiment with SK-MEL-28 melanoma and in the experiment with SN12C renal was greater than 100 µM throughout. Further, the TGI in the experiment with 786-0 renal, with MDA-MB-231 breast, in the experiment with SR leukemia and in the experiment with COLO 205 colon was greater than 100 µM in each case.
Regarding `C/C=C\C(CC(=O)NCCc1c[nH]c2ccccc12)CC(=O)OC` (stereo not given), the TGI in the experiment with BT-549 breast, in the experiment with A498 renal, in the experiment on UO-31 renal, in the experiment with OVCAR-4 ovarian, in the experiment with SK-MEL-28 melanoma and in the experiment on 786-0 renal was greater than 100 µM in each case. Further, the TGI in the experiment on MDA-MB-231 breast and in the experiment on COLO 205 colon was greater than 100 µM throughout.
With `CCCCNC(=S)Nc1nc(C(=O)NNC(=S)NCc2ccccc2)cs1`, the TGI with BT-549 breast, in the experiment with A498 renal, in the experiment with UO-31 renal, with OVCAR-4 ovarian, in the experiment on SN12C renal and with 786-0 renal was greater than 100 µM in each case. Moreover, the TGI in the experiment on MDA-MB-231 breast was greater than 100 µM; in the experiment with SR leukemia it was 27.5 µM; with COLO 205 colon, greater than 100 µM.
As to `c1ccc2c(c1)ccc1nc(-c3ccc4c(c3)OCO4)c3c(c12)CCC3`, the TGI in the experiment on BT-549 breast, in the experiment on A498 renal, in the experiment with UO-31 renal, in the experiment with OVCAR-4 ovarian, with SK-MEL-28 melanoma and in the experiment with SN12C renal was greater than 100 µM throughout. For the same compound, the TGI in the experiment with 786-0 renal, in the experiment on MDA-MB-231 breast and with COLO 205 colon was greater than 100 µM in each case.
`O=C1CCc2cc3c(cc21)C(C(=O)O)CC3` (stereo not given): the TGI with BT-549 breast, in the experiment on UO-31 renal, in the experiment on OVCAR-4 ovarian, in the experiment with HL-60(TB) leukemia, in the experiment on SK-MEL-28 melanoma and in the experiment on SN12C renal was greater than 100 µM each time. Also, the TGI in the experiment on 786-0 renal, in the experiment with MDA-MB-231 breast, in the experiment on SR leukemia and in the experiment with COLO 205 colon was greater than 100 µM throughout.
As for `CN(c1ccc(Cl)cc1)S(=O)(=O)c1ccccc1`, the TGI in the experiment with BT-549 breast, with UO-31 renal, with OVCAR-4 ovarian, with HL-60(TB) leukemia, with SK-MEL-28 melanoma and in the experiment on SN12C renal was greater than 100 µM in each case. In addition, the TGI with 786-0 renal, with MDA-MB-231 breast, in the experiment with SR leukemia and with COLO 205 colon was greater than 100 µM each time.
Consider `CC1Cc2c(cc(N)nc2Br)NC1=O` (stereo not given), for which the TGI in the experiment with BT-549 breast, in the experiment with UO-31 renal, in the experiment on OVCAR-4 ovarian, with SK-MEL-28 melanoma, with SN12C renal and in the experiment on 786-0 renal was greater than 100 µM each time. Besides, the TGI in the experiment on MDA-MB-231 breast, in the experiment with SR leukemia and with COLO 205 colon was greater than 100 µM throughout.
`CCn1c(O)c(C(=O)NC(C)c2ccc([N+](=O)[O-])cc2)c(=O)n(CC)c1=S` (stereo not given): the TGI in the experiment with BT-549 breast was 8.8 µM; in the experiment with UO-31 renal, 5.58 µM; with OVCAR-4 ovarian, 12.1 µM; in the experiment with HL-60(TB) leukemia, 5.11 µM; with SK-MEL-28 melanoma it was 17.6 µM; in the experiment with SN12C renal, 15 µM. Further, the TGI in the experiment on 786-0 renal was 11.7 µM; with MDA-MB-231 breast it was 10.8 µM; with COLO 205 colon, 3.29 µM.
In the case of `COc1ccc(OC)c(-c2cn3c(n2)sc2ccccc23)c1`, the TGI in the experiment on BT-549 breast, with UO-31 renal, in the experiment with OVCAR-4 ovarian, with HL-60(TB) leukemia, in the experiment with SN12C renal and in the experiment with 786-0 renal was greater than 100 µM throughout. The TGI with MDA-MB-231 breast, with SR leukemia and in the experiment with COLO 205 colon was greater than 100 µM in each case.
For `Oc1ccc(O)c(Sc2nnc(CCCCCCCCc3nnc(Sc4cc(O)ccc4O)o3)o2)c1`, the TGI in the experiment with BT-549 breast is greater than 100 µM; with A498 renal, greater than 100 µM; in the experiment with UO-31 renal, 32 µM; in the experiment on OVCAR-4 ovarian, greater than 100 µM; with SK-MEL-28 melanoma, greater than 100 µM; in the experiment with SN12C renal it was greater than 100 µM. Moreover, the TGI in the experiment with 786-0 renal was 35.7 µM; in the experiment on MDA-MB-231 breast, greater than 100 µM; with COLO 205 colon it was greater than 100 µM.
Regarding `O=C(O)c1cc(Nc2c(O)c3c(c(O)c2Cl)C(=O)C=CC3=O)ccc1O`, the TGI with BT-549 breast, in the experiment with A498 renal, in the experiment with UO-31 renal, in the experiment with OVCAR-4 ovarian, in the experiment with SK-MEL-28 melanoma and in the experiment on SN12C renal was greater than 10 µM each time. Moreover, the TGI in the experiment on 786-0 renal, with MDA-MB-231 breast and with COLO 205 colon was greater than 10 µM in each case.
Consider `Cc1ccc(S(=O)(=O)CC2CCCn3c2c(C#N)c2ccccc23)cc1` (stereo not given), for which the TGI in the experiment on BT-549 breast, with A498 renal, in the experiment with UO-31 renal, in the experiment with OVCAR-4 ovarian, in the experiment with SK-MEL-28 melanoma and in the experiment with SN12C renal was greater than 100 µM in each case. In addition, the TGI in the experiment on 786-0 renal, with MDA-MB-231 breast and with COLO 205 colon was greater than 100 µM throughout.
For the compound `CC(=O)NCC1OC2COC(c3ccccc3)OC2C2N=C(c3ccccc3)OC12` (stereo not given), the TGI is greater than 100 µM in the experiment with BT-549 breast; greater than 100 µM in the experiment on A498 renal; greater than 100 µM with UO-31 renal; greater than 100 µM in the experiment with OVCAR-4 ovarian; 52.9 µM in the experiment with HL-60(TB) leukemia; greater than 100 µM in the experiment on SK-MEL-28 melanoma. Moreover, the TGI in the experiment with SN12C renal, in the experiment with 786-0 renal, in the experiment on MDA-MB-231 breast and in the experiment on COLO 205 colon was greater than 100 µM throughout.
In the case of `C/C(=C\COP(=O)(O)OP(=O)(O)O)CC/C=C(\C)CNc1ccccc1`, the TGI is 44.5 µM in the experiment with BT-549 breast; greater than 50 µM with UO-31 renal; greater than 50 µM with SK-MEL-28 melanoma; greater than 50 µM in the experiment with SN12C renal; greater than 50 µM in the experiment on 786-0 renal; greater than 50 µM in the experiment on MDA-MB-231 breast. Moreover, the TGI in the experiment on COLO 205 colon was greater than 50 µM.
Consider `N#C[C@H]1C(=O)C(c2nc3ccccc3[nH]2)S[C@H]1c1ccccc1` (stereo not given in full), for which the TGI was 92.4 µM in the experiment on BT-549 breast; 79 µM in the experiment with A498 renal; 78.8 µM in the experiment with UO-31 renal; greater than 100 µM with OVCAR-4 ovarian; greater than 100 µM in the experiment on HL-60(TB) leukemia; greater than 100 µM in the experiment with SK-MEL-28 melanoma. The TGI in the experiment with SN12C renal was 91.3 µM; with 786-0 renal it was 54.2 µM; in the experiment on SR leukemia, greater than 100 µM; in the experiment with COLO 205 colon, greater than 100 µM.
On to `Cc1ccc(C(=O)NN=C(/N=N/c2cccc(C)c2)c2ccc(N(C)C)cc2)cc1`, for which the TGI in the experiment on BT-549 breast, with UO-31 renal, in the experiment with OVCAR-4 ovarian, with HL-60(TB) leukemia, with SK-MEL-28 melanoma and with SN12C renal was greater than 100 µM in each case. The TGI with 786-0 renal, with MDA-MB-231 breast, with SR leukemia and in the experiment with COLO 205 colon was greater than 100 µM throughout.
Consider `OCC1c2ccccc2-n2nc(-c3ccccc3)c(O)c21` (stereo not given), for which the TGI in the experiment with BT-549 breast is 85.1 µM; in the experiment on UO-31 renal it was 92.4 µM; in the experiment on OVCAR-4 ovarian, greater than 100 µM; in the experiment with SK-MEL-28 melanoma it was greater than 100 µM; with SN12C renal, 36.8 µM; in the experiment on 786-0 renal, 32.1 µM. In addition, the TGI in the experiment with MDA-MB-231 breast is greater than 100 µM; in the experiment with COLO 205 colon, 26.5 µM.
`CCOC(=O)c1c(SCCN2CCCCC2)n(-c2ccccc2)c(=S)n(-c2ccccc2)c1=O`: the TGI in the experiment on BT-549 breast was 31.1 µM; with UO-31 renal, 33.9 µM; in the experiment with OVCAR-4 ovarian, 33 µM; in the experiment on HL-60(TB) leukemia it was greater than 33.8 µM; in the experiment on SK-MEL-28 melanoma, 24 µM; in the experiment on SN12C renal it was 37.5 µM. The TGI with 786-0 renal was 28.1 µM; with MDA-MB-231 breast it was 38.4 µM; with SR leukemia, greater than 20.4 µM; in the experiment on COLO 205 colon, 19.9 µM.
As to `CCOc1ccccc1N=NC1C(=O)N(C(=O)CC(=O)Nc2ccccc2OC)N=C1C` (stereo not given), the TGI with BT-549 breast was greater than 100 µM; in the experiment on A498 renal, greater than 100 µM; with UO-31 renal it was 68.2 µM; with OVCAR-4 ovarian, greater than 100 µM; in the experiment with HL-60(TB) leukemia, greater than 100 µM; in the experiment with SK-MEL-28 melanoma, greater than 100 µM. Further, the TGI in the experiment with SN12C renal, in the experiment on 786-0 renal, in the experiment with MDA-MB-231 breast and in the experiment with COLO 205 colon was greater than 100 µM in each case.
